# Like-named read-outs stand apart in the source and are kept apart here.
# Key:
# cats with CKD [1] = details: 20 to 55 μg twice daily, 2 months to 3 years and 3 months; cited from earlier work
# [2] = tested on: patient with chronic renal failure; details: BPS immediate release tablets; serum creatinine of 2.2 mg/dl or higher; cited from earlier work
# [3] = tested on: kidney of rat progressive glomerulonephritis; details: in vivo; cited from earlier work
# cats with CKD [4] = experiment: Retrospective observation study: period before progression into IRIS stage 4, BPS therapy vs No BPS therapy (Kaplan-Meier); format: in vivo, cat; details: for 3-year stage progression-free rate: cats with CKD, twice daily
# Procedure: To compare the periods before progression of feline CKD into stage 4 with BPS therapy and without BPS therapy, the following retrospective observation studies were performed. The studies were performed at Ichikawa General Hospital, Kariya Animal Hospital, Inc., that had adopted the electronic chart system for veterinary hospitals, Ahmics (trademark) (PetCommunications Co., Ltd.), and completely eliminated the use of paper charts before 2017. In this hospital, all-encompassing information concerning medical treatment such as test data, death records, and drug prescription records of all patient animals have been managed by the electronic chart system. Specifically, the data sets of 1,681 cats subjected to the serum creatinine test and the data sets of 1,399 cats subjected to the urinalysis from Apr. 1, 2017 to Dec. 10, 2020 were extracted. Among them, by excluding 951 cats without records, the data sets of 730 cats that were diagnosed to have CKD as a result of serum creatinine tests at least two times, urinalysis, and other clinical tests were extracted.
# Based on the drug prescription records, cats were divided into two groups: a BPS therapy group consisting of 57 cats; and a BPS therapy-free group consisting of 77 cats, and the baseline characteristics and the periods before progression into stage 4 were compared and analyzed retrospectively. To the cats in the BPS therapy group, BPS drugs for veterinary use, RAPROS (trademark) (Toray Industries, Inc.), were administered while adjusting the amount of BPS to 14.1 to 52.4 μg/kg body weight/day and the median to 29.1 μg/kg body weight/day twice daily during or after morning and evening feeding occasions. […] Progression into stage 4 was examined by the method defined by the IRIS staging. Specifically, progression into stage 4 was determined based on serum creatinine or serum SDMA measured to be higher than 5.0 mg/dL or higher than 38 μg/dL, respectively, via two or more hospital visits. By designating progression into stage 4 as the outcome, the start date of treatment as the point of origin for the cats in the BPS therapy group, and the start date of observation as the point of origin for the cats in the No BPS therapy group, the periods (months) before the outcome was observed were recorded. In analysis, the 3-year stage progression-free rates (%) of the BPS therapy group and of the No BPS therapy group, the standard errors thereof, the 95% confidence intervals, and the comparison of the 3-year stage progression-free rates (%) between the groups were calculated. […] The average period (months) before progression into stage 4, the standard error thereof, the 95% confidence intervals, the medians and the standard errors thereof, the 95% confidence intervals, and the comparison of the average stage progression-free periods were calculated. Differences in the stage progression-free rates were assessed by the log rank test, the Cochran-Mantel-Haenszel test, by setting significant level at a two-tailed P-value of <0.05.
# Based on the drug prescription records, cats were divided into two groups: a BPS therapy group consisting of 37 cats; and a BPS therapy-free group consisting of 332 cats, and the baseline characteristics and the periods before progression into stage 4 were compared and analyzed retrospectively. To the cats in the BPS therapy group, BPS drugs for veterinary use, RAPROS (trademark) (Toray Industries, Inc.), were administered while adjusting the amount of BPS to 18.5 to 42.3 μg/kg body weight/day and the median to 26.5 μg/kg body weight/day twice daily during or after morning and evening feeding occasions. Progression into stage 4 was examined by the method defined by the IRIS staging. Specifically, progression into stage 4 was determined based on serum creatinine or serum SDMA measured to be higher than 5.0 mg/dL or higher than 38 μg/dL, respectively, via two or more hospital visits. […]
# [5] = tested on: cats with chronic renal failure; details: cited from earlier work; for kidney function: 4 cats
# [6] = stage 2 (serum creatinine 1.6 to 2.8 mg/dL)
# [7] = stage 3 (serum creatinine 2.9 to 5.0 mg/dL)
# [8] = stage 3 (serum creatinine 2.9 to 5.0 mg/dL), Kaplan-Meier
smiles,measurement,setting,value
"CC#CCC(C)[C@H](O)/C=C/[C@@H]1[C@H]2c3cccc(CCCC(=O)[O-])c3O[C@H]2C[C@H]1O.[Na+] (some centres unmarked) [BPS, Beraprost sodium]",clinical symptoms and kidney function,cats with CKD [1],stabilized clinical symptoms and maintained kidney function
same,effects of BPS in chronic renal failure,[2],effects of BPS are not observed
same,pharmacological activity on renal microvascular network,[3],improving microvascular network failure of kidney tissue
same,3-year stage progression-free rate,"cats with CKD [4]; serum creatinine 1.6 to 2.8 mg/dL (stage 2), BPS 18.5 to 42.3 μg/kg body weight/day",74.7%
same,3-year stage progression-free rate,"cats with CKD [4]; serum creatinine 2.9 to 5.0 mg/dL (stage 3), BPS 14.1 to 52.4 μg/kg body weight/day",32.7%
same,3-year stage progression-free rate of BPS therapy group relative to No BPS therapy group,cats with CKD [4]; [6],0.83 times
same,average stage progression-free period of BPS therapy group relative to No BPS therapy group,cats with CKD [4]; [6],0.93 times
same,effect on progression into stage 4,cats with CKD [4]; stage 2 (serum creatinine 1.6 to 2.8 mg/dL) before initiation of administration,no effects of BPS administration to inhibit progression into stage 4 were observed
same,average period before progression into stage 4,"cats with CKD [4]; stage 2 (serum creatinine 1.6 to 2.8 mg/dL), Kaplan-Meier",38.0 months
same,3-year stage progression-free rate of BPS therapy group relative to No BPS therapy group,cats with CKD [4]; [7],1.25 times
same,average stage progression-free period of BPS therapy group relative to No BPS therapy group,cats with CKD [4]; [7],1.49 times
same,effect on progression into stage 4,cats with CKD [4]; stage 3 (serum creatinine 2.9 to 5.0 mg/dL) before initiation of administration,effects of BPS administration to inhibit progression into stage 4 were observed
same,average period before progression into stage 4,cats with CKD [4]; [8],26.5 months
same,median period before progression into stage 4,cats with CKD [4]; [8],31.6 months
same,"kidney function (serum creatinine, BUN, other indicators) and clinical symptoms",[5]; 150 μg twice daily for 6 months,an improvement in kidney function
same,kidney function,"[5]; serum creatinine 1.6 to 2.4 mg/dL (mild), 150 μg twice daily for 6 months",improved kidney function was observed in all of the 4 subject cats
same,kidney function,"[5]; serum creatinine 2.4 to 4.0 mg/dL (moderate), 150 μg twice daily for 6 months","improved kidney function was observed in the 2 subject cats, and retained kidney function was observed in other 2 cats"
same,kidney function,"[5]; serum creatinine higher than 4.0 mg/dL (severe), 150 μg twice daily for 6 months","improved kidney function was observed in a cat, and temporary improvement, followed by impairment, was observed in other 3 cats"
same,uremia,[5]; cat with uremia caused by chronic renal failure (WO '668),improved uremia
same,recovery from chronic renal failure,"[5]; mild chronic renal failure, serum creatinine 1.4 to 2.0 mg/dL, 150 μg twice daily for 6 months",recovery from chronic renal failure was observed in 2 cats

# From US12097177B2, “Therapeutic method for cat with chronic kidney disease” (Toray Industries, Inc., priority 2021, dated 2024)
